According to US6569631B1, “Microplate thermal shift assay for ligand development using 5-(4″dimethylaminophenyl)-2-(4′-phenyl)oxazole derivative fluorescent dyes” (3-Dimensional Pharmaceuticals, Inc., priority 1998, dated 2003):

What was measured:
[1] = biological target: T1, heparin binding site of human α-thrombin (Homo sapiens, UniProt P00734); test: Microplate thermal shift assay, ligands binding to the heparin binding site, turbidity signal
T1 construct: A stock human α-thrombin solution (1.56 mg/mL) from Enzyme Research Labs; purchased Enzyme Research Labs
Source text: Assays for ligands that bind to the heparin binding site of human α-thrombin are more difficult to perform than assays for ligands that bind to the active site of human α-thrombin. At the heparin binding site, no substrate is hydrolyzed, so no spectrophotometric signal can be amplified for instrumental detection. Heparin activity is usually estimated in biological clotting time assays. […] Thus, heparin binding to human α-thrombin represents the kind of challenge encountered with the vast majority of non-enzyme receptor/ligand binding events, which are commonly observed for hormone/receptor interactions, repressor/DNA interactions, neurotransmitter/receptor interactions, etc. Several heparin-like sulfated oligosaccharides and sulfated naphthalene compounds were assayed by the microplate thermal shift assay. Using the thermal shift assay, it was possible to use a single compound per well to quickly rank the compounds in order of increasing binding affinity, with Kd's ranging over three orders of magnitude (see Table 4). Like the experiment in Example 1, the thermal shift assay results agreed closely with the results obtained through an alternative method, which required a series of laborious (15 to 20 single determinations) fluorescence quench assays over a wide range of concentrations of low MW heparin (Olson, S. T. et al., J. Biol. Chem. 266:6342-6352 (1991)).

[2] = biological target: T2, acidic fibroblast growth factor (aFGF) (Homo sapiens, UniProt P05230); test: Microplate thermal shift assay for ligands binding to aFGF, turbidity signal; conditions: turbidity signal; aFGF 0.25 mg/mL; ligand 47-200 μM
T2 construct: host or cells: E. coli
T2 sequence (P05230 whole entry, species assumed): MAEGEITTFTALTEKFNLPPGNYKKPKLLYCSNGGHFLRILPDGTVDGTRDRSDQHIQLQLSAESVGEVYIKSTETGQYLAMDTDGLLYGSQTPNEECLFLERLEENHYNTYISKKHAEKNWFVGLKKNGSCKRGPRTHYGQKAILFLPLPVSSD
Source text: The second therapeutic receptor tested in the microplate thermal shift assay was acidic fibroblast growth factor (aFGF), a growth factor that plays a key role in angiogenesis (Folkman, J. et al., J. Biol. Chem. 267:1.0931-10934 (1992)). A synthetic gene for this protein was purchased from R&D Systems (Minneapolis, Minn.), and was cloned and expressed in E. coli using methods similar to those described for basic fibroblast growth factor (bFGF) (Thompson, L. D. et al., Biochemistry 33:3831-3840 (1994); Pantoliano, M. W. et al., Biochemistry 33:10229-10248 (1994); Springer, B. A. et al., J. Biol. Chem. 269:26879-26884 (1994)). Recombinant aFGF was then purified by heparin-sepharose affinity chromatography as described (Thompson, L. D. et al., Biochemistry 33:3831-3840 (1994)). aFGF is also known to bind heparin/heparan, which is a cofactor for mitogenic activity. […] A microplate thermal assay of these compounds was set up in a way similar to that described above for human α-thrombin. […] The affinity constants covered a fairly broad range of binding affinities, with pentosan PSO4 showing the highest affinity.

[3] = test system: D(II) domain of fibroblast growth factor receptor 1 (FGFR1); test: Microplate thermal shift assay for ligands binding to D(II) FGFR1, fluorescence emission signal; set-up: species or system human; conditions: D(II) FGFR1 70 μM; 136 μM ANS; ligand 150-156 μM
Chain of D(II) domain of fibroblast growth factor receptor 1 (FGFR1) (P11362 158-246 limits assumed): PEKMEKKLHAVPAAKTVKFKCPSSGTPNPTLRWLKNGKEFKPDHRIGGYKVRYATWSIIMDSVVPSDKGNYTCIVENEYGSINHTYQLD
Source text: The microplate thermal-shift assay was employed to test the binding of heparin 5000 and pentosan PSO4 to the known heparin binding site in the D(II) domain of fibroblast growth factor receptor 1 (FGFR1). D(II) FGFR1 is a 124 residue domain which is responsible for most of the free energy of binding for bFGF. D(II) FGFR1 was cloned and expressed in E. coli. Recombinant D(II) FGFR1 was renatured from inclusion bodies essentially as described (Wetmore, D. R. et al., Proc. Soc. Mtg., San Diego, Calif. (1994)), except that a hexa-histidine tag was included at the N-terminus to facilitate recovery by affinity chromatography on a Ni^2+ chelate column (Janknecht, R. et al., Natl. Acad. Sci. USA 88:8972-8976 (1991)). D(II) FGFR1 was further purified on a heparin-sepharose column (Kan, M. et al., Science 259:1918-1921 (1993); Pantoliano, M. W. et al., Biochemistry 33:10229-10248 (1994)). […]
The D(II) FGFR1 protein was dissolved in an ANS solution to a concentration of 1.0 mg/mL (70 μM). […] Because ANS fluorescence is very environment dependent (see Lakowicz, I. R., Principles of Fluorescence Spectroscopy, Plenum Press, New York (1983)), the quantum yield observed for the denaturation of different proteins will vary. […] A similar result was obtained for Factor Xa, except that the fluorescence quantum yield for ANS bound to denatured Factor Xa was almost as good as it was for human α-thrombin.

[4] = biological target: bFGF (Homo sapiens, UniProt P09038); conditions: read-out: affinity for binding to bFGF by isothermal titrating calorimetry; cited from earlier work
Chain of bFGF (P09038 134-288): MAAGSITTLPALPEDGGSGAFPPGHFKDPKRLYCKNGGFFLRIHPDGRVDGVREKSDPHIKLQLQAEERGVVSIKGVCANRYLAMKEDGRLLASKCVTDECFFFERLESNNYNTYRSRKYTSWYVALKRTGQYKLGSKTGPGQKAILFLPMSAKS

[5] = many described as coagulation anomalies; cited from earlier work

For pentosan polysulfate [Pentosan PSO4], the “affinity at Tm higher than the affinity of heparin 5000” value ([1]; thermal shift assay, Table 4) was 7 fold, the Tm ([1]; turbidity signal, 11 μM thrombin, ligand 40-102 μM) was 332.15 °K and the Tm [2] was 336.15 °K. For the same substance, the Tm [3] was 319.4 °K, the Kd [4] was 88 nM and the “outcome of clinical trials for antiangiogenic activity” value [5] was “discounted due to toxic effects”.
